Values joined by “and” are separate entries in the source; they are usually repeats but may differ in a detail not shown here. Equal values may be shown once. Read-outs that look alike come from different tables or passages of the source.
Columns and labels:
[1] = cited from earlier work
[2] = duodenal, 2 mg levodopa lauryl sulfate/rat (0.85 mg levodopa equivalent/rat), individual rats
[3] = with carbidopa; cited from earlier work
[4] = Intravenous levodopa group of Example 10, levodopa plasma level; format: in vivo; settings: 0.4 mg levodopa/kg, individual rats 1-3 (Table C)
Experimental: Another group of rats were treated with levodopa intravenously, at a dose of 0.4 mg/kg.

[5] = cited from earlier work; remark: listed apart in the source
[6] = after oral administration; cited from earlier work
[7] = iv, 0.4 mg levodopa/kg, individual rats 1-3 (Table D)
[8] = in vivo; settings: rat, plasma, iv, 0.4 mg/kg, Plasma level (levodopa), 0.4 mg levodopa/kg, individual rats 1-3 (Table D)

SMILES: C[C@@](Cc1ccc(O)c(O)c1)(NN)C(=O)O [Carbidopa, (−)-L-((alpha)-hydrazino-((alpha)-methyl-(beta)-(3,4-dihydroxybenzene)propanoic acid monohydrate]
- solubility in water [1]: slightly soluble in water

SMILES: CCCCCCCCCCCCOS(=O)(=O)O.N[C@@H](Cc1ccc(O)c(O)c1)C(=O)O [Levodopa lauryl sulfate, Levodopa-Lauryl Sulfate Complex]
- Plasma level (levodopa) ([2]; time 0 h): 9.42 ng/mL and 8.7 ng/mL and 8.55 ng/mL
- Plasma level (levodopa) ([2]; time 1 h): 57.3 ng/mL and 51.3 ng/mL and 43.7 ng/mL
- Plasma level (levodopa) ([2]; time 2 h): 21.3 ng/mL and 22 ng/mL and 9.24 ng/mL
- Plasma level (levodopa) ([2]; time 3 h): 12 ng/mL and 11.6 ng/mL and 24 ng/mL
- Plasma level (levodopa) ([2]; time 4 h): 8.07 ng/mL and 7.45 ng/mL and 19.6 ng/mL

SMILES: N[C@@H](Cc1ccc(O)c(O)c1)C(=O)O [Levodopa, (−)-L-(alpha)-amino-(beta)-(3,4-dihydroxybenzene) propanoic acid]
- plasma half-life of levodopa [3]: 1.5 h
- Plasma level (levodopa) ([4]; time 0 h): 0 ng/mL
- Plasma level (levodopa) ([4]; time 0.033 h): 336 ng/mL and 247 ng/mL and 690 ng/mL
- Plasma level (levodopa) ([4]; time 0.5 h): 16 ng/mL and 11.4 ng/mL and 41.6 ng/mL
- Plasma level (levodopa) ([4]; time 1 h): 7.34 ng/mL and 11.5 ng/mL and 18.2 ng/mL
- Plasma level (levodopa) ([4]; time 1.5 h): 6.51 ng/mL and 0 ng/mL and 13.8 ng/mL
- Plasma level (levodopa) ([4]; time 2 h): 0 ng/mL and 5.82 ng/mL and 8.23 ng/mL
- Plasma level (levodopa) ([4]; time 3 h): 0 ng/ml (2×) and 5.53 ng/ml
- concentration at 0 h ([4]; Sprague-Dawley, rat, plasma, 0.4 mg/kg, time 0 h): 0 ng/mL
- average intraindividual coefficient of variation for the plasma levodopa concentrations ([5]; after oral therapy (sustained-release tablets)): 34%
- average intraindividual coefficient of variation for the plasma levodopa concentrations ([5]; during continuous intestinal infusion, p<0.01): 14%
- time within which practically all absorption of levodopa occurs [6]: ≤ 4 h
- Plasma level (levodopa) ([7]; time 0 h): 0 ng/mL
- Plasma level (levodopa) ([7]; time 0.033 h): 336 ng/mL and 247 ng/mL and 690 ng/mL
- Plasma level (levodopa) ([7]; time 0.5 h): 16 ng/mL and 11.4 ng/mL and 41.6 ng/mL
- Plasma level (levodopa) ([7]; time 1 h): 7.34 ng/mL and 11.5 ng/mL and 18.2 ng/mL
- Plasma level (levodopa) ([7]; time 1.5 h): 6.51 ng/mL and 0 ng/mL and 13.8 ng/mL
- Plasma level (levodopa) ([7]; time 2 h): 0 ng/mL and 5.82 ng/mL and 8.23 ng/mL
- Plasma level (levodopa) ([7]; time 3 h): 0 ng/ml (2×) and 5.53 ng/ml
- concentration at 0 h [8]: 0 ng/mL
- solubility in water [1]: slightly soluble in water

Source: patent publication US20050163850A1, “Administration of levodopa and carbidopa” (priority 2003, published 2005)
